Assay results taken from PMC10179701, “Towards Protection of Nucleic Acids from Herbicide Attack: Self-Assembly of Betaines Based on Pillar[5]arene with Glyphosate and DNA” (International Journal of Molecular Sciences, 2023).
Marks after values point to notes of the source that are not given here.

Key:
[1] = Dynamic light scattering of macrocycle aggregates in water; assay type: physicochemical; settings: H2O, 298 K
Protocol: The next stage of the work was the study of aggregation properties of both previously synthesized ester derivatives of amino acids 1 and 2, and macrocyclic betaine derivatives 3 and 4 by dynamic light scattering (DLS). The study was carried out in water in the 1 × 10^–6–1 × 10^–4 M concentration range (Figures S11–S22). The size of associates increases with decreasing macrocycle 1 concentration in solution (Table 1). A different pattern is observed for betaine derivative 3. Thus, the particles become coarser, and the polydispersity index (PDI) of the systems increased with an increase in compound 3 concentration, which is probably due to the formation of β-sheets by oligopeptide substituents. The presence of two oppositely charged fragments in one substituent leads to the fact that compound 3 becomes similar to surfactant molecules in terms of its aggregation properties.

[2] = system: LEC cells; assay: MTT test, LEC cells
Protocol: (§1) The next stage of this work was the study of pillar[5]arenes 1–4 ability to inhibit the viability and proliferative activity of embryonic lung epithelial (LEC) and human lung adenocarcinoma (A549) cells using the MTT test.
(§2) Further, the ability of GIS to inhibit the viability and proliferative activity of LEC and A549 cells was studied by the MTT test. […] The average inhibitory concentration (IC50) was calculated for GIS (Table 3). […]
(§3) 1.6. Cytotoxicity of pillar[5]arenes 1–4, GIS and their mixtures on A549 and LEC Cell Lines […]
(§4) activity of LEC cells and A549 cells was investigated using the MTT test according to [2]. A549 – human alveolar adenocarcinoma cell line (ATCC, Rockville, Maryland, USA) and cow embryo lung epithelial (LEC) cells (Animal Cell Culture Collection of Russian Academy of Agricultural Science, Kazan, Russia) were cultured in DMEM (GIBCO, Waltham, MA, USA) medium supplemented with 10% serum and 100 units/mL of penicillin (PanEco, Moscow, Russia) and streptomycin (PanEco, Moscow, Russia) in a humidified atmosphere with 5% CO2 at 37 °C. Cells were seeded in 96‐well plates at a concentration of 10^4 cells/well. After 24 h of cultivation, the medium was removed from the wells and replaced with a fresh one with the addition of the test substances. The volume of the culture medium in the wells was 100
(§5) μL. After 24 h incubation of cells in the presence of substances, the medium in the wells was replaced with a fresh one containing MTT reagent at a final concentration of 0.5 mg/mL. The cells were incubated with MTT for 4 h at 37 °C in an atmosphere of 5% CO2. Then, the medium was aspirated from the wells and 100 μL of dimethyl sulfoxide was added. Probes were incubated at 37 °C for 15 min in the dark for the formazan crystals to dissolve. The optical density of the formazan solution in the wells was measured using a plate reader (BioRad xMarkTM Microplate Spectrophotometer, USA) at a wavelength of 570 nm.
(§6) Three series of experiments were carried out with at least 8 replications for each variant in the series. […]

[3] = system: A549 cells; assay: MTT test, A549 cells
Protocol: as §1, §2, §3, §4, §5, §6

[4] = molecular target: DNA from salmon sperm; assay: UV-Vis spectrophotometric titration, association with DNA from salmon sperm; assay type: binding; settings: 1:1 complex, Tris-HCl buffer pH 7.44, CDNA 2.5 × 10^–7 M, BindFit
Protocol: The interaction of GIS with a series of synthesized pillar[5]arenes 1–4 and DNA was studied by UV-Vis spectroscopy. UV-Vis spectroscopy is a universal method to study the complex properties of synthetic receptors. The interaction of GIS with DNA from salmon sperm was initially studied (Figure 5). DNA from salmon sperm was chosen as a model substrate due to its relatively low molecular weight and small size. The experiments were carried out in a Tris-HCl buffer system (pH = 7.44).
The association constants were determined by spectrophotometric titration to quantify the interaction of DNA with GIS. The UV-Vis spectra of the DNA–GIS system were recorded in such a way that the DNA concentration remained constant (2.5 × 10^–7 M), and the herbicide concentration ratio increased from 1:0.3 to 1:10 (Figure 5b). The obtained experimental data were processed by the BindFit program. The association constant of a 1:1 complex was calculated (Figure S23). The logarithm of the association constant of DNA with GIS was determined as lgKa = 4.92. […] However, in this case, the association constant of the complexes was determined with a large error.
Further, the interaction of macrocycles 1–4 with the DNA from salmon sperm in Tris-HCl was studied by UV-Vis spectroscopy. […] The association constant of compound 4-DNA complex was determined by spectrophotometric titration. […] The logarithm of the association constant of pillar[5]arene 4 with the DNA was determined as lgKa (4–DNA) = 5.24.
The association constant of compound 1-DNA complex was also determined by spectrophotometric titration (Figure S25b). The logarithm of the association constant of pillar[5]arene 1 with DNA was determined as lgKa(1–DNA) = 4.88 (Figure S27). […]
buffer solution. The UV spectra of the solutions were then recorded. The stability constant of complex was calculated by Bindfit. […]
volume of 3 mL with Tris‐HCl buffer solution. The UV spectra of the solutions were then recorded. The stability constant of each complex was calculated by Bindfit. […]
stability constant of complex was calculated by Bindfit. […]

[5] = system: A549 cells; assay: MTT assay, combined action of macrocycles with GIS on A549 cells; assay type: cell-based, human; settings: A549, pillararene 1 × 10^–5 M with GIS 3.47 × 10^–2 M
Protocol: The ability to inhibit the viability and proliferative activity of A549 cells of macrocycles 1–4 in the presence of GIS was studied using the MTT assay. […] The developed approach opens up the possibility of creating pillar[5]arene-based herbicide antidotes. […]
fresh one with the addition of the test substances.
Then, the medium was aspirated from the wells
and 100 μL of dimethyl sulfoxide was added.
the formazan crystals to dissolve. […]
substances. […] After 24 h of incubation cells were […]

## C[N+](C)(CCCNC(=O)COc1cc2c(OCC(=O)NCCC[N+](C)(C)CC(=O)N[C@@H](Cc3ccccc3)C(=O)[O-])cc1Cc1cc(OCC(=O)NCCC[N+](C)(C)CC(=O)N[C@@H](Cc3ccccc3)C(=O)[O-])c(cc1OCC(=O)NCCC[N+](C)(C)CC(=O)N[C@@H](Cc1ccccc1)C(=O)[O-])Cc1cc(OCC(=O)NCCC[N+](C)(C)CC(=O)N[C@@H](Cc3ccccc3)C(=O)[O-])c(cc1OCC(=O)NCCC[N+](C)(C)CC(=O)N[C@@H](Cc1ccccc1)C(=O)[O-])Cc1cc(OCC(=O)NCCC[N+](C)(C)CC(=O)N[C@@H](Cc3ccccc3)C(=O)[O-])c(cc1OCC(=O)NCCC[N+](C)(C)CC(=O)N[C@@H](Cc1ccccc1)C(=O)[O-])Cc1cc(OCC(=O)NCCC[N+](C)(C)CC(=O)N[C@@H](Cc3ccccc3)C(=O)[O-])c(cc1OCC(=O)NCCC[N+](C)(C)CC(=O)N[C@@H](Cc1ccccc1)C(=O)[O-])C2)CC(=O)N[C@@H](Cc1ccccc1)C(=O)[O-] [Compound 4, 4,8,14,18,23,26,28,31,32,35-Decakis-[(N-[3’-dimethyl({oxidocarbonyl[S-benzyl]methyl}aminocarbonylmethyl)ammonio]propyl)aminocarbonylmethoxy]-pillar[5]arene]
[1]; 1 × 10^–4 M
  polydispersity index (PDI): 0.36
  size of aggregates d: 127 ± 16 nm
[1]; 1 × 10^–5 M
  polydispersity index (PDI): 0.41
  size of aggregates d: 218 ± 10 nm
[1]; 1 × 10^–6 M
  polydispersity index (PDI): 0.42
  size of aggregates d: 457 ± 65 nm
[2]; MTT, 24 h
  IC50: >100 * μg/mL
[2]; concentration range 2–100 μg/mL
  cytotoxic activity: did not show statistically significant cytotoxic activity
[3]; A549, MTT, 24 h
  IC50: >100 * μg/mL
[3]; A549, concentration range 2–100 μg/mL
  cytotoxic activity: did not show statistically significant cytotoxic activity
[4]
  lgKa, logarithm of the association constant with DNA: 5.24
[5]
  change of toxicity on combined action with GIS: No significant differences
